In patent publication US12448388B2, “PRMT5 inhibitors and uses thereof” (Gilead Sciences, Inc., priority 2023, dated 2025):
In brackets after ≈: the same amount, converted by molar mass. Where two headings read alike, the source gives them in different places.

What was measured:
[1] = tested on: HCT116 MTAP-deleted cell lines; experiment: Cell viability assay (CellTiter-Glo, 7 days), HCT116 MTAP-deleted; type: cell-based; settings: for Selectivity: HCT116 WT CC50 versus HCT116 MTAP^del CC50; for plasma-adjusted CC50 (paCC50): paCC50 = CC50-HCT116-MTAP^del * (% free CCM/% free human plasma); for CC50: Homo sapiens, HCT116 MTAP-deleted
Method in brief: (§1)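 Read-out was CellTiter-Glo luminescence after a 7-day incubation (37 °C, 5% CO2) of HCT116 cells, MTAP-deleted or WT, on dose-response compound plates. CC50 values come from each line; where marked *, selectivity is overstated because poor solubility impaired the WT CC50 measurement.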

[2] = Cell viability assay (CellTiter-Glo, 7 days), HCT116 WT; type: cell-based; settings: human, HCT116 WT cells, 7 days of treatment, CTG
Method in brief: as §1

[3] = Pharmacokinetics in cassette in male Sprague-Dawley rats for Kp measurement; type: in vivo; settings: 1 mg/kg, intravenous
Description: E.1 Test Animal: Male Sprague-Dawley Rats (225-300 g) with Indwelling Bilateral Jugular Vain Cannula (JVC/JVC) or Single Jugular Vein Cannula (JVC)
E.2 Pharmaceutical Formulation and Administration
Test compound was dissolved in the vehicle of 10% DMSO, 10% ethanol, 40% polyethylene glycol 300, and 40% propylene glycol to get 1 mg/mL test compound solution. The compound was administered by intravenous administration at a dose of 1 mL/kg. Fasting was not required.
• Anticoagulant: K2EDTA • Volume: approximately 225 μL blood at each bleed • Jugula vein via syringe and needle or another method (non-terminal samples) or exsanguination (cardiac puncture) under isoflurane (or CO2 inhalation if isoflurane is unavailable) anesthesia (terminal time points). Blood samples were collected into K2EDTA tubes • Tissue collection and processing: following the terminal blood collection, the brain and CSF were collected from each animal.

[4] = PBS solubility (kinetic solubility from DMSO stocks); type: physicochemical; settings: 22 °C, aqueous buffer, kinetic from dmso stock; 1x PBS pH 7.4, 1.0% DMSO, 24-hour incubation at ambient temperature
Method in brief: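 Kinetic solubility in 1× PBS pH 7.4 with 1.0% final DMSO, maximum theoretical concentration 100 μM from 10 mM stock. After 24 h at ambient temperature (20.8-24.0 °C) the samples were vacuum-filtered and filtrates quantified by nitrogen detection against a calibration curve. Values were background-corrected and reported in μM and μg/mL.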

[5] = HCT-116, * Calculated using Low throughput hEQDS
[6] = HCT-116, 168 h, 7 days of treatment, CTG, read-out: CC50-HCT116-MTAP^del
[7] = HCT-116, cell viability, class symbols, read-out: CC50
[8] = brain Kp = [brain]/[plasma], rat, read-out: Rat brain Kp
[9] = brain Kpu,u = Kp * (plasma free/rat brain free), read-out: Rat brain Kpu,u
[10] = HCT-116, cell viability assay, class symbols, read-out: CC50

| Structure (SMILES) | Kp [3, 8] | Kp [3, 9] | solubility at 24 h [4] | Selectivity [1] | plasma-adjusted CC50 (paCC50) [1, 5] | CC50 [1, 6] | CC50 [1, 7] | CC50 at 7 days [2] | plasma-adjusted CC50 (paCC50) ([1]; HCT-116) | CC50 [1, 10] |
| --- | --- | --- | --- | --- | --- | --- | --- | --- | --- | --- |
| C[C@H]1CN(C(=O)c2cc3c(cc2F)nc(N)c2cncn23)[C@H]2c3ccc(C(F)(F)F)cc3C[C@H]2O1 (single isomer, unassigned) [Ff-81] | 0.17 | 0.04 | 18.5 µM (≈ 8.98 µg/mL) | 71 | 591 nM | 19 nM | < 100 nM | 1350 nM | – | – |
| Nc1nc2cc(F)c(C(=O)N3CCO[C@@H]4Cc5cc(C(F)(F)F)ccc5[C@@H]43)cc2n2cncc12 (single isomer, unassigned) [Ff-82] | 0.15 | 0.02 | 17.9 µM (≈ 8.44 µg/mL) | 77 | – | 27 nM | < 100 nM | 2070 nM | 408 nM | – |
| C[C@H]1CN(C(=O)c2cc3c(cc2F)nc(N)c2cncn23)[C@H]2c3cc(F)c(C(F)F)cc3C[C@H]2O1 (single isomer, unassigned) [Ff-173] | 0.12 | 0.03 | 9.9 µM (≈ 4.81 µg/mL) | 64 | – | 35 nM | < 100 nM | 2250 nM | 1160 nM | – |
| C[C@@H]1CN(C(=O)c2cc3c(cc2F)nc(N)c2cncn23)[C@H]2c3ccc(OC(F)(F)F)cc3C[C@H]2O1 (single isomer, unassigned) [Ff-183] | 0.41 | 0.06 | 1.6 µM (≈ 0.802 µg/mL) | 57 | – | 15 nM | < 100 nM | 853 nM | 257 nM | – |
| C[C@@H]1CN(C(=O)c2cc3c(cc2F)nc(N)c2cncn23)[C@H]2c3cc(F)c(OC(F)(F)F)cc3C[C@H]2O1 (single isomer, unassigned) [Ff-197] | 0.22 | 0.06 | < 1 µM | 47 | – | 15 nM | < 100 nM | 712 nM | 217 nM | – |
| Cc1ncc2c(N)nc3cnc(C(=O)N4CCC[C@@H]5Oc6cc(OC(F)(F)F)ccc6[C@@H]54)cc3n12 [Ff-340, (4-amino-1-methylimidazo[1,5-a]pyrido[3,4-e]pyrazin-8-yl)((4aS,9bS)-7-(trifluoromethoxy)-3,4,4a,9b-tetrahydrobenzofuro[3,2-b]pyridin-1(2H)-yl)methanone] | 0.2 | 0.06 | < 1 µM | 107 | – | 23 nM | < 100 nM | 2460 nM | 298 nM | – |
| Nc1nc2cnc(C(=O)N3CC[C@H]4C[C@@H]3c3ccc(OC(F)(F)F)cc3O4)cc2n2cncc12 [Ff-685, (4-aminoimidazo[1,5-a]pyrido[3,4-e]pyrazin-8-yl)((2S,6R)-9-(trifluoromethoxy)-3,4-dihydro-2H-2,6-methanobenzo[b][1,5]oxazocin-5(6H)-yl)methanone] | – | – | 16.1 µM (≈ 7.57 µg/mL) | 71 | – | 16 nM | – | 1130 nM | 357 nM | < 100 nM |
| [2H]C1([2H])CC[C@@H]2Oc3cc(C(F)(F)F)ccc3[C@@H]2N1C(=O)c1cc2c(cn1)nc(N)c1cncn12 [Fg-60, (4-aminoimidazo[1,5-a]pyrido[3,4-e]pyrazin-8-yl)((4aS,9bS)-7-(trifluoromethyl)-3,4,4a,9b-tetrahydrobenzofuro[3,2-b]pyridin-1(2H)-yl-2,2-d2)methanone] | – | – | – | 98 | – | 7 nM | – | 683 nM | – | < 100 nM |

Now from value to compound, other results behind:

| Kp [3, 8] | Kp [3, 9] | solubility at 24 h [4] | Structure (SMILES) | Selectivity [1] | plasma-adjusted CC50 (paCC50) [1, 5] | CC50 [1, 6] | CC50 [1, 7] | CC50 at 7 days [2] | plasma-adjusted CC50 (paCC50) ([1]; HCT-116) | CC50 [1, 10] |
| --- | --- | --- | --- | --- | --- | --- | --- | --- | --- | --- |
| 0.29 | – | 50.2 µM (≈ 23.7 µg/mL) | Nc1nc2cnc(C(=O)N3CC[C@H]4C[C@@H]3c3c(F)cc(C(F)(F)F)cc3O4)cc2n2cncc12 (single isomer, unassigned) [Ff-694] | 72 | – | 10 nM | – | 723 nM | 120 nM | – |
| 0.29 | 0.05 | 19.9 µM (≈ 9.4 µg/mL) | Nc1nc2cnc(C(=O)N3CCC[C@@H]4Oc5cc(C(F)(F)F)cc(F)c5[C@@H]43)cc2n2cncc12 (single isomer, unassigned) [Fg-53] | 84 | 139 nM | 6 nM | – | 503 nM | – | < 100 nM |
| 0.2 | 0.05 | 13.7 µM (≈ 6.69 µg/mL) | Nc1nc2cnc(C(=O)N3CCC[C@@H]4Oc5cc(OC(F)(F)F)cc(F)c5[C@@H]43)cc2n2cncc12 (single isomer, unassigned) [Fg-55] | 89 | 190 nM | 9 nM | – | 799 nM | – | < 100 nM |
| 0.39 | 0.07 | < 1 µM | Nc1nc2cc(F)c(C(=O)N3CCC[C@@H]4Oc5cc(C(F)(F)F)ccc5[C@@H]43)cc2n2cncc12 [Ff-104, (4-amino-7-fluoroimidazo[1,5-a]quinoxalin-8-yl)((4aS,9bS)-7-(trifluoromethyl)-3,4,4a,9b-tetrahydrobenzofuro[3,2-b]pyridin-1(2H)-yl)methanone] | 94 | 139 nM | 5 nM | < 100 nM | 470 nM | – | – |
| 0.1 | 0.02 | 2.3 µM (≈ 1.09 µg/mL) | Nc1nc2cnc(C(=O)N3CCC[C@@H]4Oc5c(ccc(C(F)(F)F)c5F)[C@@H]43)cc2n2cncc12 [Ff-109, (4-aminoimidazo[1,5-a]pyrido[3,4-e]pyrazin-8-yl)((4aS,9bS)-6-fluoro-7-(trifluoromethyl)-3,4,4a,9b-tetrahydrobenzofuro[3,2-b]pyridin-1(2H)-yl)methanone] | 92 | – | 15 nM | < 100 nM | 1380 nM | 276 nM | – |
| 0.48 | 0.06 | 1.7 µM (≈ 0.773 µg/mL) | Nc1nc2cnc(C(=O)N3CCC[C@@H]4Oc5cc(C(F)(F)F)ccc5[C@@H]43)cc2n2cncc12 [Ff-110, (4-aminoimidazo[1,5-a]pyrido[3,4-e]pyrazin-8-yl)((4aS,9bS)-7-(trifluoromethyl)-3,4,4a,9b-tetrahydrobenzofuro[3,2-b]pyridin-1(2H)-yl)methanone] | 86 | – | 6 nM | < 100 nM | 516 nM | 100 nM | – |
| 0.4 | 0.06 | 1.1 µM (≈ 0.499 µg/mL) | Nc1nc2ccc(C(=O)N3CCC[C@@H]4Oc5cc(C(F)(F)F)ccc5[C@@H]43)cc2n2cncc12 [Ff-111, (4-aminoimidazo[1,5-a]quinoxalin-8-yl)((4aS,9bS)-7-(trifluoromethyl)-3,4,4a,9b-tetrahydrobenzofuro[3,2-b]pyridin-1(2H)-yl)methanone] | 110 | – | 10 nM | < 100 nM | 1100 nM | 139 nM | – |
| – | – | 5.1 µM (≈ 2.45 µg/mL) | Nc1nc2cnc(C(=O)N3CC4(CC4)C[C@@H]4Oc5cc(C(F)(F)F)ccc5[C@@H]43)cc2n2cncc12 [Ff-648, (4-aminoimidazo[1,5-a]pyrido[3,4-e]pyrazin-8-yl)((4aS,9bS)-7-(trifluoromethyl)-4a,9b-dihydro-2H-spiro[benzofuro[3,2-b]pyridine-3,1′-cyclopropan]-1(4H)-yl)methanone] | 72 | – | 9 nM | – | 650 nM | 262 nM | < 100 nM |
| – | – | 28.4 µM (≈ 13.4 µg/mL) | Nc1nc2cnc(C(=O)N3CC[C@H]4C[C@@H]3c3ccc(C(F)(F)F)c(F)c3O4)cc2n2cncc12 [Ff-684, (4-aminoimidazo[1,5-a]pyrido[3,4-e]pyrazin-8-yl)((2S,6R)-10-fluoro-9-(trifluoromethyl)-3,4-dihydro-2H-2,6-methanobenzo[b][1,5]oxazocin-5(6H)-yl)methanone] | 93 | – | 14 nM | – | 1310 nM | 465 nM | < 100 nM |
